# Tests used:
# Bos taurus = species: Bos taurus; assay: log(1000/IC50 determined from bovine brain membrane) expressed as potency; assay type: functional
# Adenosine receptor A1 [1] = target: T1, Adenosine receptor A1 (Rattus norvegicus, UniProt P25099); assay: Binding affinity against rat brain adenosine A1 receptor by using N6-[3H]- cyclohexyladenosine as radioligand
# T1 sequence (P25099 whole entry): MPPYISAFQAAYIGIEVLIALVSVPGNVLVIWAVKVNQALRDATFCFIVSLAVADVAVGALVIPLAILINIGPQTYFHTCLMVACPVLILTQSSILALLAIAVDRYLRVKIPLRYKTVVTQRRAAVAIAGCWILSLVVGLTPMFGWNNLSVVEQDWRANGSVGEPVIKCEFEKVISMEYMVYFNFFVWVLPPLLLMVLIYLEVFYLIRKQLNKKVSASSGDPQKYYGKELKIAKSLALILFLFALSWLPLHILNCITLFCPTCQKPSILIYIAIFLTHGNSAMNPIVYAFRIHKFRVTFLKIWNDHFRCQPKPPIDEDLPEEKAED
# Adenosine receptor A1 [2] = target: T2, Adenosine receptor A1 (Bos taurus, UniProt P28190)
# T2 sequence (P28190 whole entry): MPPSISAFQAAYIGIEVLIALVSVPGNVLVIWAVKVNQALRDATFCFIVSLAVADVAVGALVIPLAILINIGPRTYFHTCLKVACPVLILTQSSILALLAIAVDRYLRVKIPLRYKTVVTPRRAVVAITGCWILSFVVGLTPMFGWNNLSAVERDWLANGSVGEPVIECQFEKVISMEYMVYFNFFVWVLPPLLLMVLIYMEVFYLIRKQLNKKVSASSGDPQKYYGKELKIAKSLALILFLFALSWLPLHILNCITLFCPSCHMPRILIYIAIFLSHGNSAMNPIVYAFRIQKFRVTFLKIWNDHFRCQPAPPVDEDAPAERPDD
# Description: Binding affinity against bovine brain adenosine A1 receptor by using N6-[3H]- cyclohexyladenosine
# [3] = Equilibrium constant (pKa) was determined.; assay type: physicochemical
# [4] = Solubility in 0.1 N HCl; assay type: physicochemical
# [5] = Partition coefficient (logP); assay type: physicochemical; conditions: octanol/water
# [6] = Solubility in 0.1 M phosphate buffer at pH 7.4; assay type: physicochemical
# [7] = phosphate buffer, read-out: Solubility
IC50 (Adenosine receptor A1 [2]) [nM],Structure (SMILES),Potency (Bos taurus),also measured
,Cn1c(=O)c2nc(-c3ccc([N+](=O)[O-])cc3N)[nH]c2n(C)c1=O,2.6,
,CCc1ccc(-c2nc3c(=O)n(C)c(=O)n(C)c3[nH]2)cc1,3.1,
,Cn1c(=O)c2nc(-c3ccc(O)cc3)[nH]c2n(C)c1=O,2.7,
,CCn1c(=O)c2nc(-c3ccc(Cl)cc3N)[nH]c2n(CC)c1=O,3.1,
,Cc1cccc(-c2nc3c(=O)n(C)c(=O)n(C)c3[nH]2)c1,1.89,
0.08,CCCn1c(=O)c2[nH]c(-c3ccc(S(=O)(=O)NCCCN(C)C)cc3)nc2n(CCC)c1=O,,IC50 (Adenosine receptor A1 [1]): 8.2 nM
,Cn1c(=O)c2nc(-c3ccc(C(=O)O)cc3)[nH]c2n(C)c1=O,1.3,
,C=CCn1c(=O)c2[nH]c(-c3ccc(C)cc3N)nc2n(C)c1=O,2.15,
1140,C=CCn1c(=O)c2nc(-c3ccc(S(=O)(=O)O)cc3)[nH]c2n(CC=C)c1=O,,IC50 (Adenosine receptor A1 [1]): 7440 nM
,Cn1c(=O)c2nc(-c3cccc(F)c3)[nH]c2n(C)c1=O,2.4,
5.5,Cn1c(=O)c2[nH]c(-c3ccc4ccccc4c3)nc2n(C)c1=O,,
3.3,CCn1c(=O)c2[nH]c(-c3ccc(N(C)C)cc3)nc2n(CC)c1=O,,IC50 (Adenosine receptor A1 [1]): 118 nM
21.9,Cn1c(=O)c2[nH]c(-c3ccc(S(=O)(=O)O)cc3)nc2n(C)c1=O,,
0.24,CCCn1c(=O)c2nc(-c3ccc(S(=O)(=O)NCCCC(=O)OCC)cc3)[nH]c2n(CCC)c1=O,,IC50 (Adenosine receptor A1 [1]): 18.5 nM
,Cn1c(=O)c2nc(-c3ccc([N+](=O)[O-])cc3)[nH]c2n(C)c1=O,2.1,
,Cn1c(=O)c2nc(-c3cccc(Br)c3)[nH]c2n(C)c1=O,2,
755,CCn1c(=O)c2[nH]c(-c3ccc(S(=O)(=O)O)cc3)nc2n(CC)c1=O,,"IC50 (Adenosine receptor A1 [1]): 5540 nM; pKa [3]: < 2; solubility [4]: > 8000 µg/mL; logP [5]: -0.97; solubility [6, 7]: > 57000 µg/mL"
,CSc1ccc(-c2nc3c(=O)n(C)c(=O)n(C)c3[nH]2)cc1,2.7,
,COc1ccc(-c2nc3c(=O)n(C)c(=O)n(C)c3[nH]2)c(OC)c1,0.7,
,Cn1c(=O)[nH]c2[nH]c(-c3ccccc3)nc2c1=O,2.6,
,Cc1ccc(-c2nc3c(=O)n(C)c(=O)n(C)c3[nH]2)c(N)c1,2,

IC50 (Adenosine receptor A1 [2]) [nM],Structure (SMILES),Potency (Bos taurus),also measured
29.4,CCn1c(=O)c2nc(-c3cccc(S(=O)(=O)NCCN(C)C)c3)[nH]c2n(CC)c1=O,,IC50 (Adenosine receptor A1 [1]): 553 nM
,Cn1c(=O)c2nc(-c3ccc(F)cc3)[nH]c2n(C)c1=O,2.46,
5.5,Cn1c(=O)c2nc(-c3ccccc3N)[nH]c2n(C)c1=O,2.26,
,Cc1cc(O)cc(C)c1-c1nc2c(=O)n(C)c(=O)n(C)c2[nH]1,1.52,
13,CCn1c(=O)c2[nH]c(-c3ccc(S(=O)(=O)N4CCOCC4)cc3)nc2n(CC)c1=O,,IC50 (Adenosine receptor A1 [1]): 310 nM
,C=CCn1c(=O)c2[nH]c(-c3ccccc3)nc2n(C)c1=O,2.4,
1.6,CCn1c(=O)c2[nH]c(-c3ccc(S(=O)(=O)NCCCN(C)C)cc3)nc2n(CC)c1=O,,IC50 (Adenosine receptor A1 [1]): 70 nM
,Cn1c(=O)c2nc(-c3ccccc3C(=O)O)[nH]c2n(C)c1=O,-0.4,
,CCn1c(=O)c2[nH]c(-c3ccccc3)nc2n(CC)c1=O,,pKa [3]: 9.1; solubility [4]: 1 µg/mL; logP [5]: 2.93; solubility ([6]; buffer): 6 µg/mL
,Cn1c(=O)c2nc(-c3ccc(N)cc3N)[nH]c2n(C)c1=O,2.1,
,Cn1c(=O)c2nc(-c3ccc(Br)cc3)[nH]c2n(C)c1=O,3.12,
,CCOc1ccc(-c2nc3c(=O)n(C)c(=O)n(C)c3[nH]2)cc1,2.7,
,COc1cccc(-c2nc3c(=O)n(C)c(=O)n(C)c3[nH]2)c1,1.7,
3.4,CCCn1c(=O)c2[nH]c(-c3ccc(S(=O)(=O)O)cc3)nc2n(CCC)c1=O,,"IC50 (Adenosine receptor A1 [1]): 120 nM; pKa [3]: < 2; solubility [4]: 1300 µg/mL; logP [5]: -0.03; solubility [6, 7]: > 24000 µg/mL"
6.5,Cc1ccccc1-c1nc2c([nH]1)c(=O)n(C)c(=O)n2C,,
,CN(C)c1ccc(-c2nc3c(=O)n(C)c(=O)n(C)c3[nH]2)cc1,2.74,
,COc1cc(OC)cc(-c2nc3c(=O)n(C)c(=O)n(C)c3[nH]2)c1,0.3,
8420,CCn1c(=O)c2[nH]c(-c3cccc(S(=O)(=O)O)c3)nc2n(CC)c1=O,,IC50 (Adenosine receptor A1 [1]): 30700 nM
10.3,C=CCn1c(=O)c2nc(-c3ccc(S(=O)(=O)NCCCN(C)C)cc3)[nH]c2n(CC=C)c1=O,,
,CCCn1c(=O)c2nc(-c3ccc(Cl)cc3N)[nH]c2n(CCC)c1=O,4.3,

# Reference: ChEMBL document CHEMBL1122916, “Synthesis of xanthines as adenosine antagonists, a practical quantitative structure-activity relationship application” (J Med Chem, 1985)
